Here are results for 9 molecules from patent US6441133B1, “Thyrotropin-releasing hormone receptor 2(TRHR-2)” (AstraZeneca Canada Inc., priority 1996, dated 2002).

Read-outs that look alike come from different tables or passages of the source. Where a SMILES comes first, the peptide text is derived from it. Where no end group is shown, it is not given here. [ ]: non-standard residue; d: D form. pGlu = O=C1CC[C@@H](C(=O)O)N1 Where only a bound is given, the exact number is not on record here.

Experiment [1] deals with Thyrotropin-releasing hormone receptor 2 (TRHR-2), rat, expressed in HEK293s cells from pCDNA3-TRHR2 (rat). In words: competition with 3H-TRH tracer on whole cells, 293S/TRH-R clonal cell line.
Experiment [2] deals with T1, TRH receptor (TRHR-1) of GH4C1 cells (Rattus norvegicus, UniProt Q01717).
T1 construct: endogenous in cells; host or cells: GH4C1
T1 sequence (Q01717 1-412): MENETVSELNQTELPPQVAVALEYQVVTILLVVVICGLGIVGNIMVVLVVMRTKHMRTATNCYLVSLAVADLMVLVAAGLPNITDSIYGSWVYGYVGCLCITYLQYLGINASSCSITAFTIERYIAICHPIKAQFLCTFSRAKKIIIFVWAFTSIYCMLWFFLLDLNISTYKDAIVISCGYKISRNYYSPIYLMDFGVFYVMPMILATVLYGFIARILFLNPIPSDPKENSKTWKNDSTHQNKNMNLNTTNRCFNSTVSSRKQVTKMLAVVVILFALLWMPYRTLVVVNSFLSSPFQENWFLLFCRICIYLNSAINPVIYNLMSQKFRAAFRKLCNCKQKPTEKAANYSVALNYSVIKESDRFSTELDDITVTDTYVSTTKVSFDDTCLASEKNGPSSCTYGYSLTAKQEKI
In words: 3H-TRH radioligand binding on GH4C1 cells.

The target in experiment [3] is T2, TRHR-2 (Rattus norvegicus, UniProt A6IZR3).
T2 construct: expressed in transfected cells; host or cells: HEK293s
T2 sequence (A6IZR3 1-352): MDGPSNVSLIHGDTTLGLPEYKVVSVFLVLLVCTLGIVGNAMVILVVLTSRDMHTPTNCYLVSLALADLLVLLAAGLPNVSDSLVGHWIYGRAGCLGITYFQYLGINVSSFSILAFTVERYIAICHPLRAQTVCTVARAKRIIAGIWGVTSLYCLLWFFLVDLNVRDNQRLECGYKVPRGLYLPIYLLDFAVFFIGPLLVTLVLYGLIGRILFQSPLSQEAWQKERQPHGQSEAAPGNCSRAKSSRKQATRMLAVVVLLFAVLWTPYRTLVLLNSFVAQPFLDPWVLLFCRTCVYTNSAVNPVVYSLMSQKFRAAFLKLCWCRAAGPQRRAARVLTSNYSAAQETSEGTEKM
Nature of the experiment: 3H-TRH radioligand binding on whole HEK293s cells stably expressing TRHR-2. The protocol: (§1) The TRH binding assay was performed on whole cells. Transfected cells were washed twice with HBSS (Gibco BRL, cat# 14065) supplemented with 0.05% bovine serum albumin, detached by gentle pipetting and aliquoted in eppendorf tubes for binding assays. One twentieth of the cells collected from a confluent 75 cm^2 flask was used per assay point. The binding reaction was performed in a total volume of […] of binding buffer (HBSS+0.05% bovine serum albumin) containing the transfected cells and 10 nM of^3H-thyrotropin releasing hormone (Peninsula Laboratories Inc, cat # 7501) with or without unlabelled competitors. Non-specific binding was estimated in the presence of 1 mM of unlabelled TRH. Reactions were carried out for 60 min at room temperature and reactions were stopped by filtration through Unifilters-96 GF/B filters (Canberra Packard cat # 6005177) using the 96-well Filtermat 196 filtration system from Canberra Packard. The filters were washed 3 times with 1 ml of washing buffer (50 mM Tris(HCl), 3 mM MgCl2, pH 7.0). They were then dried at 55° C. for one hour and 50 μl of mScint-20 (Canberra Packard) was added per well. Filters were counted with the Topcount microplate counter from Canberra Packard.
HEK293s cells in a 10 cm petri dish were transfected with […] pCDNA3-TRHR2. After 14 days of selection in culture medium containing 600 μg/ml G418, resistant colonies were pooled. Then, single clones were purified by 2 rounds of limited dilution in 96 well plates. Clones of HEK293s cells expressing different levels of TRHR-2 receptor were selected using a 3H-TRH binding assay.

Experiment [4] addresses TRH receptor of GH4C1 cells (TRHR-1) (UniProt Q01717). In words: radioligand binding on whole GH4C1 cells.
Experiment [5] addresses Thyrotropin-releasing hormone receptor 2 (TRHR-2), rat, expressed in HEK293s cells from pCDNA3-TRHR2 (rat). In words: radioligand binding on whole cells, 293S/TRH-R clonal cell line.
Experiment [6] shares this target. Nature of the experiment: saturation radioligand binding on whole HEK 293 cells expressing TRHR-2.
The conditions of experiment [7]: I.C.V. injection, on a molar basis (Boschi et al. 1983); cited from earlier work.
Experiment [8] deals with T2, TRHR-2. In words: Intracellular calcium mobilization (Fura 2) in HEK293/TRHR-2 cells. It is filed as cell-based. The protocol: Intracellular calcium concentration changes where determined by fluorescence measurement of the intracellular, calcium-sensitive indicator Fura 2. Briefly, HEK293s cells were grown on glass cover slips in culture medium at 37° C., 5% CO2 and diluted 10 fold every 3 days. The cells were loaded at room temperature for 30 min using […] of is Fura 2/AM in simplified Grace's solution (SGS buffer) physiological buffer (NBS: 135 mM NaCl, 5 mM KCl, 1.8 mM CaCl2, 1.2 mM MgSO4, 10 mM HEPES, pH 7.4). Fura 2/AM is a membrane permeant, calcium-insensitive ester of Fura 2. After three washes in Fura-2 /AM-free buffer, the cells were incubated for 15 to 30 min in SGNBS at room temperature to insure full hydrolysis of the Fura 2 ester. The calcium-sensitive, hydrolyzed form of Fura 2 remains trapped intracellularly. Experiments were conducted at room temperature on single cells or small groups of 3 to 7 cells in a coverslip holder fitted to the stage of an IMT-2 inverted microscope equipped with a 40×-epifluorescence objective (UVFL40, 0.85, Olympus Optical Co, Tokyo) and coupled to a PTI ratio fluorescence system (Photon Technology International, London, Ontario, Canada). Sample illumination was provided by a 75 W xenon light source attached to a filter-based light chopper unit which provided 340 and 380 nm excitation wavelength alternating at a frequency of 5 Hz. The emitted light was passed through an adjustable rectangular aperture followed by a 505 nm interference filter (10-nm bandwidth), and its intensity was recorded by a photon counter detector. Dye leakage, as determined by loss of fluorescence over a period of 30 min, was undetectable at both excitation wavelengths.
The ratio of the fluorescence intensity at the two excitation wavelengths can be converted into an estimate of ionized intracellular calcium concentration by use of the formula: [Ca^2+]i=Kd×(Fmin/Fmax)×(R-Rmin)/(Rmax-R), where R, Rmin, and Rmax are the fluorescence ratios recorded during the experiment (R) and during calibration tests on unlysed cells using […] ionomycin in SGNBS (Rmax), followed by 10 mM EGTA addition at pH 8.2 (Rmin). Fmin and Fmax are the corresponding fluorescence intensities for the 380 nm excitation and Kd is the Fura-2 dissociation constant at room temperature (135 nM).
Small volumes (10-50 μl) of drugs (hormones, agonists, neurotransmitters, TRH, bradykinin) from prediluted stock solutions prepared in the appropriate buffer solutions were directly added to the experimental chamber.
On the technique in general: A change in cytosolic calcium serves as a functional read-out for many receptors and channels.

For experiment [9], the target named is T3, Thyrotropin-releasing hormone receptor 2 (TRHR-2), rat, expressed in HEK293s cells from pCDNA3-TRHR2 (rat).
T3 construct: 352 amino acid open reading frame cloned from a rat brain stem-spinal cord cDNA library; also called TRH receptor 2; 293S/TRH-R clonal cell line
T3 chain: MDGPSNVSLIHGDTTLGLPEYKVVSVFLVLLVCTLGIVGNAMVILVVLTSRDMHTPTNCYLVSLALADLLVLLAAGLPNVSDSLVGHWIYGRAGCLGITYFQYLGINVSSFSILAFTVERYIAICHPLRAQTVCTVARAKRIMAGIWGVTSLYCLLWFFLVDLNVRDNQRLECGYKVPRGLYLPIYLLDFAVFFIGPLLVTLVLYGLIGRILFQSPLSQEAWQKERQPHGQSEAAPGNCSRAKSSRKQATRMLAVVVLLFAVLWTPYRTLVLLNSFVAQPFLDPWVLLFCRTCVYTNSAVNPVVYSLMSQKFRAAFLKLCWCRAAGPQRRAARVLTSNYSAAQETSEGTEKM
Nature of the experiment: 3H-TRH competition on cells expressing TRHR-2 (assay not restated in the sentence). The protocol: as §1, with “cm²” for “cm^2”, “of ³H-thyrotropin” for “of^3H-thyrotropin”, “MgCl_2,” for “MgCl2,”, “µl” for “μl”
(§2) A binding reaction was performed using HEK 293 cells expressing TRHR-2. […] Various TRH-related peptides were used in competition experiments.

Experiment [10] concerns the target T3, Thyrotropin-releasing hormone receptor …. In words: competition with 3H-TRH tracer on whole cells, 293S/TRH-R clonal cell line. The protocol:
as §1, with “cm²” for “cm^2”, “of ³H-thyrotropin” for “of^3H-thyrotropin”, “MgCl_2,” for “MgCl2,”, “µl” for “μl”
as §2

Setting [11] is: GH4C1 cells, three independent experiments.
Setting [12] is: 293S/TRH-R clonal cell line, three independent experiments, read-out: IC50.
The mark [13] stands for this setting: HEK 293 cells expressing TRHR-2, read-out: IC50 in competition with 3H-TRH as tracer.
Setting [14] is: nanomolar concentrations of TRH.

With pGlu-3-methyl-His-Pro-amide (peptide), in [1], the 50% inhibitory concentration (IC50) (commonly the concentration needed to halve the response being measured) is 2.2 nM.
For the molecule “^3H-thyrotropin releasing hormone [^3H-TRH]”, the Kd – broadly, the constant that tells how readily two partners part at equilibrium – in experiment [2] (setting [11]) is 5.32 ± 1.63 nM; at TRHR-2 [3] (293S/TRH-R clonal cell line, three independent experiments, read-out: Kd) it was 6.17 ± 1.51 nM; on TRHR-2 [3] (HEK 293 cells expressing TRHR-2, saturation binding, read-out: estimated Kd for 3H-TRH), 2.5 nM.
“Thyrotropin-releasing hormone (TRH), pGlu-His-Pro-amide, unlabelled (peptide)”: the IC50 in [1] turned out to be 8.39 nM.
Turning to `NC(=O)[C@@H]1CCCN1C(=O)[C@H](CCC(=O)O)NC(=O)[C@@H]1CCC(=O)N1` [pGlu-Glu-Pro-amide] ([pGlu]-Glu-Pro-NH2), the half-inhibitory concentration (IC50) (in experiment [2] (setting [11]); on TRHR-2 [3] (setting [12]); at TRHR-2 [3] (setting [13])) was greater than 10000 nM throughout.
As for `Cn1cnc(C[C@H](NC(=O)[C@@H]2CCC(=O)N2)C(=O)N2CCC[C@H]2C(N)=O)c1` [pGlu-3-methyl-His-Pro-amide], the IC50 in experiment [2] (setting [11]) was found to be 0.43 ± 0.27 nM; on TRHR-2 [3] (setting [13]) it was 2.2 nM.
In experiment [4], “3H-thyrotropin releasing hormone (tritium-labelled TRH, Peninsula Laboratories) (peptide)” came in with a BMAX of 577 fmol/mg and a Kd of 5.32 nM. In experiment [5], this molecule yielded a BMAX of 535 fmol/mg and a Kd of 6.17 nM. In [6], this molecule showed a Bmax (fmol/mg proteins) of 430 and a Kd of 2.5 nM.
For the molecule `O=C(O)CNC(=O)[C@@H]1CCCN1C(=O)[C@H](Cc1c[nH]cn1)NC(=O)[C@@H]1CCC(=O)N1` [pGlu-His-Pro-Gly] ([pGlu]HPG-OH; C-terminus assumed), in [2], the “binding to GH4C1 cells” value was “does not show any binding”. Moreover, the IC50 in experiment [2] (setting [11]) was greater than 10000 nM; at TRHR-2 [3] (setting [12]) it was 641 ± 75.2 nM; at TRHR-2 [3] (setting [13]), 640 nM. On TRHR-2 [3] (read-out: Ki value to the TRHR-2 receptor), the inhibition constant Ki (as a rule, a dissociation constant, usually derived from enzyme kinetics or from competition with a known ligand) worked out at 640 nM.
With `NC(=O)[C@@H]1CCCN1C(=O)[C@H](Cc1cnc[nH]1)NC(=O)[C@@H]1CCC(=O)N1` [TRH, pyroglutamic acid-histidine-proline-amide], the “analgesia relative to morphine” value in [7] is “twice as great”. The same molecule came in with an IC50 in experiment [2] (setting [11]) of 5.33 ± 2.81 nM. Further, at TRHR-2 [3] (setting [12]), the IC50 is 8.39 ± 2.31 nM. For the same molecule, the half-inhibitory concentration (IC50) on TRHR-2 [3] (setting [13]) turned out to be 8.3 nM. Moreover, at TRHR-2 [8], the “need of extracellular calcium for the transient rise in [Ca++]i” value is given as “did not require the presence of extracellular calcium”. At TRHR-2 [8] (setting [14]), the “change of intracellular calcium concentration” value is recorded as “marked transient increase in the intracellular calcium concentration”, the “time to peak of [Ca++]i” value is listed as “about 1 second” and the “time until baseline [Ca++]i was attained” value was “about 1 minute”.

B1: pGlu-His-Pro-Gly (peptide)
peptide: [pGlu]HPG
notes: TRH-related peptide with a modified C-terminus
As to B1, the inhibitory constant (Ki) in experiment [9] came to 640 nM. The molecule further displayed a half-maximal inhibitory concentration (IC50) in experiment [10] of 641 nM.
